In US20250346599A1, “TRICYCLIC PHTHALAZINONE PARP INHIBITORS AND METHODS OF USE” (Valo Health, Inc., priority 2022, published 2025):
“And” between values parts separate entries of the source, which are not always exact repeats. Equal values may be shown once.

The compounds below were run against PARP1 enzyme (Homo sapiens (Human), UniProt P09874) (assay: PARP Mass Spectroscopy Assay (PARP1 enzymatic assay, nicotinamide detection)). Conditions: 5 nM PARP1, 5 uM β-NAD, 60 min at RT, NAM by mass spectrometry.
Type: biochemical
Source text: Materials and Reagents: The PARP1 enzyme was purchased from BPS Bioscience (cat #80501). Tris-HCl, pH 8.0 was purchased from Corning (cat #46-031-CM). Magnesium chloride was purchased from Thermo Fisher Scientific (previously Honeywell Fluka, cat #63020-1L). All other assay components, activated DNA (cat #D4522), core histones (cat #SRP6590), β-Nicotinamide adenine dinucleotide (β-NAD—cat #N8285), 3ABA PARP1 small molecule inhibitor (from the PARP1 Enzyme Activity Assay kit, cat #17-10149), Sodium Chloride (NaCl, cat #56546-1L), Triton X-100 (cat #93443), Dithiothreitol (DTT, cat #43816-250 ML) were all purchased from Millipore Sigma.
Assay Buffer: The assay buffer includes the following reagents: 50 mM Tris-HCl pH 8.0, 50 mM NaCl, 10 mM, MgCl2, 0.01% Triton X-100, and 1 mM DTT.
PARP1 enzymatic assays were performed in 384-well plates in a total volume of 20 μL in the assay buffer. For concentration response curves, compounds were serially diluted 3-fold from 2 mM highest concentration […] to generate a 10-point curve, and 125 nL was transferred to the assay plate using the Echo acoustic dispenser for a final concentration range of 26.6 μM to […] in 10 μL reaction. Five microliters of 10 nM PARP1 enzyme and 100 nM core histones (2×) mix were added to the assay plates and pre-incubated for 30 mins at room temperature (RT). The reaction was initiated by the addition of a 5 μL of 10 uM β-NAD plus 0.02 mg/mL activated DNA (2×) mix. The reaction is incubated for 60 min at RT. The final concentration of the PARP1 enzyme and substrate concentrations were 5 nM and 5 uM, respectively. The positive control (high signal) and negative control (low signal) wells had 125 nL of DMSO in place of compounds. After the incubation is complete, the reaction is stopped by the addition of 10 μL of 10 uM of the 3ABA PARP1 inhibitor, incubated for 5 min at RT, and placed in the −80 C freezer for shipment to the Valo Health site in Branford Connecticut where mass spectrometry will be used to directly detect quantities of nicotinamide (NAM).
The percent inhibition of enzyme activity was calculated according to the following equation: […]
The values of Ssample, Shigh, and Slow in the equation refer to the NAM concentration detected in the assay wells, high control wells, and low control wells, respectively. To determine inhibitor IC50 values, % inhibition of the CRCs (concentration response curves) was fitted to the standard single-site four-parameter logistic equation.

Sequence of PARP1 enzyme (P09874 whole entry): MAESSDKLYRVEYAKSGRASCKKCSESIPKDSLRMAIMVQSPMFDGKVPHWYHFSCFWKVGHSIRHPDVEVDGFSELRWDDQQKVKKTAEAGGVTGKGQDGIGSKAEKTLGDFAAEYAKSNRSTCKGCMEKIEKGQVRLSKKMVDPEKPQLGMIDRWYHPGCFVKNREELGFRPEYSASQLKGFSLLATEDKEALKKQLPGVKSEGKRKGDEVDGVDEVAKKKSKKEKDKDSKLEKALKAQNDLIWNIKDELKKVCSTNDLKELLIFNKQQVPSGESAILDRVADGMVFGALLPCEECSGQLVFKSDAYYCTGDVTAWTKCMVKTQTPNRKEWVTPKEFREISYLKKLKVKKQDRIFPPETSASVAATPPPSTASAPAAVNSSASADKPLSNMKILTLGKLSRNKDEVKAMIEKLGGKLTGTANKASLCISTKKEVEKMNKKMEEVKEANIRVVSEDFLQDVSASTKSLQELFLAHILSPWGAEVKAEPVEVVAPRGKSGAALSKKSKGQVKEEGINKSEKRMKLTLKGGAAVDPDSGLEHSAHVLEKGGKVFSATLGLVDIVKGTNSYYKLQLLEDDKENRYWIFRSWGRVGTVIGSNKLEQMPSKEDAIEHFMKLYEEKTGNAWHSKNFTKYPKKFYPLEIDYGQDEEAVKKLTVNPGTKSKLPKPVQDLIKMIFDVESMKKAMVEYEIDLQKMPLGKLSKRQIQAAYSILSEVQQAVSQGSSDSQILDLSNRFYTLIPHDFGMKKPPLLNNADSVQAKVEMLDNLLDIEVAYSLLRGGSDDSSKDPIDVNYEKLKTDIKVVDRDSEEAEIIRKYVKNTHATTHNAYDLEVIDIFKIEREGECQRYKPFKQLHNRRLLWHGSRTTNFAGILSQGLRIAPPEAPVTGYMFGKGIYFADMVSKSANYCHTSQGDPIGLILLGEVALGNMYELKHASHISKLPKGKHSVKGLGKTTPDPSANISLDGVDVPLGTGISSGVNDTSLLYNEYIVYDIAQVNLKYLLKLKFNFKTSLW

Row | Compound | IC50
1 | N#Cc1ccc(C2c3n[nH]c(=O)c4cc(F)cc(c34)NC2c2c(F)cc(F)cc2F)cc1F (stereo not shown) [0092A; 0092B, 2-fluoro-4-(5-fluoro-3-oxo-8-(2,4,6-trifluorophenyl)-2,7,8,9-tetrahydro-3H-pyrido[4,3,2-de]phthalazin-9-yl)benzonitrile] | 13 nM
2 | O=c1[nH]nc2c3c(cc(F)cc13)N[C@@H](c1c(F)cc(F)cc1F)[C@@H]2C1CCNCC1 [Compound 0098B] | 30 nM
3 | CN1CCC([C@H]2Nc3cc(F)cc4c(=O)[nH]nc(c34)[C@@H]2c2ccc(F)cc2F)CC1 [Compound 0110A, (8R,9R)-9-(2,4-difluorophenyl)-5-fluoro-8-(1-methylpiperidin-4-yl)-2,7,8,9-tetrahydro-3H-pyrido[4,3,2-de]phthalazin-3-one] | 1400 nM
4 | COCCN1CCC(C2Nc3cc(F)cc4c(=O)[nH]nc(c34)C2c2ccc(F)cc2F)C1 (stereo not shown) [Compound 0111-6, 12-(2,4-difluorophenyl)-7-fluoro-11-[1-(2-methoxyethyl)pyrrolidin-3-yl]-2,3,10-triazatricyclo[7.3.1.0^{5,13}]trideca-1,5(13),6,8-tetraen-4-one] | 164 nM
5 | O=c1[nH]nc2c3c(cc(F)cc13)NC[C@H]2c1ccc(F)cc1F [Compound 0114A, (R)-9-(2,4-difluorophenyl)-5-fluoro-2,7,8,9-tetrahydro-3H-pyrido[4,3,2-de]phthalazin-3-one] | 270 nM
6 | CN1CCC([C@H]2Nc3cc(F)cc4c(=O)[nH]nc(c34)[C@@H]2c2ccccc2Cl)CC1 [Compound 0116A, (8R,9R)-9-(2-chlorophenyl)-5-fluoro-8-(1-methylpiperidin-4-yl)-2,7,8,9-tetrahydro-3H-pyrido[4,3,2-de]phthalazin-3-one] | 5280 nM
7 | COCCN1CCC(C2Nc3cc(F)cc4c(=O)[nH]nc(c34)C2c2ccccc2Cl)C1 (stereo not shown) [Compound 0117-8, 12-(2-chlorophenyl)-7-fluoro-11-[1-(2-methoxyethyl)pyrrolidin-3-yl]-2,3,10-triazatricyclo[7.3.1.0^{5,13}]trideca-1,5(13),6,8-tetraen-4-one] | 566 nM
8 | O=c1[nH]nc2c3c(cc(F)cc13)NC(C1CCOC1)C2c1ccccc1Cl (stereo not shown) [Compound 0121-4] | 39 nM
9 | O=c1[nH]nc2c3c(cc(F)cc13)N[C@H]([C@@H]1CCOC1)[C@H]2c1ccccc1Cl [Compound 0121B] | 236 nM
10 | O=c1[nH]nc2c3c(cc(F)cc13)N[C@@H]([C@H]1CCOC1)[C@@H]2c1ccccc1Cl [Compound 0121C] | 854 nM
11 | O=c1[nH]nc2c3c(cc(F)cc13)NC(C1CCNC1)C2c1ccccc1Cl (stereo not shown) [Compound 0171, 12-(2-chlorophenyl)-7-fluoro-11-(pyrrolidin-3-yl)-2,3,10-triazatricyclo[7.3.1.0^{5,13}]trideca-1,5(13),6,8-tetraen-4-one] | 91 nM
12 | C[C@@H]1Nc2cc(F)cc3c(=O)[nH]nc(c23)[C@H]1c1ccccc1Cl [Compound 0172B, (8S,9S)-9-(2-chlorophenyl)-5-fluoro-8-methyl-2,7,8,9-tetrahydro-3H-pyrido[4,3,2-de]phthalazin-3-one] | 18 nM
13 | O=c1[nH]nc2c3c(cc(F)cc13)NC(C1CCNC1)C2c1ccc(F)cc1F (stereo not shown) [Compound 0173A, 12-(2,4-difluorophenyl)-7-fluoro-11-(pyrrolidin-3-yl)-2,3,10-triazatricyclo[7.3.1.0^{5,13}]trideca-1,5(13),6,8-tetraen-4-one] | 70 nM
14 | O=c1[nH]nc2c3c(cc(F)cc13)NC(C1CCCN1)C2c1ccccc1Cl (stereo not shown) [Compound 0181-6] | 1200 nM
15 | N#Cc1ccc([C@@H]2CNc3cc(F)cc4c(=O)[nH]nc2c34)cc1F [Compound 0186A] | 243 nM
16 | N#Cc1ccc([C@H]2CNc3cc(F)cc4c(=O)[nH]nc2c34)cc1F [Compound 0186B] | 41 nM
17 | N#Cc1ccc([C@@H]2CNc3cc(F)cc4c(=O)[nH]nc2c34)c(F)c1 [Compound 0187A] | 9 nM
18 | O=c1[nH]nc2c3c(cc(F)cc13)NC[C@@H]2c1ccc(Cl)c(F)c1 [Compound 0188B, (S)-9-(4-chloro-3-fluorophenyl)-5-fluoro-2,7,8,9-tetrahydro-3H-pyrido[4,3,2-de]phthalazin-3-one] | 99 nM
19 | O=c1[nH]nc2c3c(cc(F)cc13)NC[C@H]2c1ccc(Cl)cc1F [Compound 0189A] | 79 nM
20 | CN1CCC[C@H]([C@H]2CNc3cc(F)cc4c(=O)[nH]nc2c34)C1 [Compound 0191-8] | 46 nM

Row | Compound | IC50
21 | CN1CCC[C@H]([C@H]2CNc3cc(F)cc4c(=O)[nH]nc2c34)C1 [Compound 0191B] | 37 nM
22 | CN1CCC[C@H]([C@@H]2CNc3cc(F)cc4c(=O)[nH]nc2c34)C1 [Compound 0191C] | 50 nM
23 | CN1CCC[C@@H]([C@H]2CNc3cc(F)cc4c(=O)[nH]nc2c34)C1 [Compound 0191D] | 35 nM
24 | CN1CCCC[C@@H]1[C@@H]1CNc2cc(F)cc3c(=O)[nH]nc1c23 [Compound 0192A] | 27 nM
25 | CN1CCCC[C@@H]1[C@H]1CNc2cc(F)cc3c(=O)[nH]nc1c23 [Compound 0192B] | 22 nM
26 | C[C@@H]1Nc2cc(F)cc3c(=O)[nH]nc(c23)[C@H]1c1ccc(C#N)cc1F [Compound 0194B] | 35 nM
27 | CC1Nc2cc(F)cc3c(=O)[nH]nc(c23)C1c1ccc(Cl)c(F)c1 (stereo not shown) [Compound 0195-5, 9-(4-chloro-3-fluorophenyl)-5-fluoro-8-methyl-2,7,8,9-tetrahydro-3H-pyrido[4,3,2-de]phthalazin-3-one] | 18 nM
28 | CC1Nc2cc(F)cc3c(=O)[nH]nc(c23)C1c1ccc(Cl)cc1F (stereo not shown) [Compound 0196-5] | 9 nM
29 | C[C@H]1Nc2cc(F)cc3c(=O)[nH]nc(c23)[C@@H]1C1CCN(C)CC1 [Compound 0197A] | 447 nM
30 | CC1Nc2cc(F)cc3c(=O)[nH]nc(c23)C1C1CCCN(C)C1 (stereo not shown) [Compound 0198-5] | 244 nM
31 | C[C@H]1Nc2cc(F)cc3c(=O)[nH]nc(c23)[C@H]1[C@@H]1CCCN(C)C1 [Compound 0198B] | 39 nM
32 | C[C@@H]1Nc2cc(F)cc3c(=O)[nH]nc(c23)[C@H]1[C@H]1CCCN(C)C1 [Compound 0198C] | 45 nM
33 | C[C@H]1Nc2cc(F)cc3c(=O)[nH]nc(c23)[C@@H]1[C@@H]1CCCN(C)C1 [Compound 0198D] | 42 nM
34 | C[C@H]1Nc2cc(F)cc3c(=O)[nH]nc(c23)[C@@H]1[C@H]1CCCCN1C [Compound 0199A] | 65 nM
35 | C[C@H]1Nc2cc(F)cc3c(=O)[nH]nc(c23)[C@@H]1[C@@H]1CCCCN1C [Compound 0199B] | 118 nM
36 | C[C@@H]1Nc2cc(F)cc3c(=O)[nH]nc(c23)[C@H]1[C@@H]1CCCCN1C [Compound 0199D] | 25 nM
37 | CC[C@H]1Nc2cc(F)cc3c(=O)[nH]nc(c23)[C@@H]1c1ccccc1Cl [Compound 0206B, (11R,12R)-12-(2-chlorophenyl)-11-ethyl-7-fluoro-2,3,10-triazatricyclo[7.3.1.0^{5,13}]trideca-1,5(13),6,8-tetraen-4-one] | 6 nM
38 | O=c1[nH]nc2c3c(cc(F)cc13)NC(C1CCC(F)(F)CC1)C2c1c(F)cc(F)cc1F (stereo not shown) [Compound 0212A] | 15 nM and 20 nM
39 | O=c1[nH]nc2c3c(cc(F)cc13)N[C@H](C1CCC(F)(F)CC1)[C@H]2c1ccccc1Cl [Compound 0213A] | 352 nM
40 | N#Cc1ccc([C@H]2c3n[nH]c(=O)c4cc(F)cc(c34)N[C@@H]2C2CCC(F)(F)CC2)cc1F [Compound 0214A] | 108 nM
